According to paper PMC4850393, “Sequence diversity of NanA manifests in distinct enzyme kinetics and inhibitor susceptibility” (Scientific Reports, 2016):

Legend:
[1] = system: CC(=O)N[C@H]1[C@H]([C@H](O)[C@H](O)CO)O[C@@](Oc2ccc3c(C)cc(=O)oc3c2)(C(=O)O)C[C@@H]1O; assay: purified protein; details: pH 6.5
[2] = system: CC(=O)N[C@H]1[C@H]([C@H](O)[C@H](O)CO)O[C@@](Oc2ccc3c(C)cc(=O)oc3c2)(C(=O)O)C[C@@H]1O; assay: purified protein; details: pH 6.5; remark: listed apart in the source
20566-LC (NanA-DSM20566) = molecular target: T1, 20566-LC (NanA-DSM20566) (Streptococcus pneumoniae, UniProt P62576); assay: chemiluminescence NA-Star assay; assay type: biochemical; details: read-out: 50% inhibitory concentration (μM) ^a / DANA
T1 construct: lectin (CBM40) + catalytic domains, residues 116-833, N-terminal 6xHis (pET-28a), ~84 kDa, E. coli BL21(DE3), cobalt column
Source text: chemiluminescence NA-Star assay on 20566-LC (NanA-DSM20566)

20566-CC (NanA-DSM20566) [3] = molecular target: T2, 20566-CC (NanA-DSM20566) (Streptococcus pneumoniae, UniProt P62576); assay: chemiluminescence NA-Star assay; assay type: biochemical; details: read-out: 50% inhibitory concentration (μM) ^a / DANA
T2 construct: catalytic domain only, residues 311-833 (523 aa), N-terminal 6xHis (pET-28a), ~62 kDa, E. coli BL21(DE3); catalytic domain printed as identical to CF8919
Source text: chemiluminescence NA-Star assay on 20566-CC (NanA-DSM20566)

20566-CC (NanA-DSM20566) [4] = molecular target: T3, 20566-CC (NanA-DSM20566) (Streptococcus pneumoniae, UniProt P62576, I442V); assay: biochemical
20566-CC (NanA-DSM20566) [5] = molecular target: 20566-CC (NanA-DSM20566) (Streptococcus pneumoniae, UniProt P62576, G441A/I442V/K440R); assay: biochemical
20566-CC (NanA-DSM20566) [6] = molecular target: 20566-CC (NanA-DSM20566) (Streptococcus pneumoniae, UniProt P62576, DEL440-442); details: read-out: 20566-CC-ΔKGI; MES, 4 mM CaCl2, pH 6.5, room temperature
20566-CC (NanA-DSM20566) [7] = molecular target: 20566-CC (NanA-DSM20566) (Streptococcus pneumoniae, UniProt P62576, K440R/G441A/I442V); details: read-out: 20566-CC-RAV; MES, 4 mM CaCl2, pH 6.5, room temperature
20566-CC (NanA-DSM20566) [8] = molecular target: T3, 20566-CC (NanA-DSM20566); details: read-out: 20566-CC-KGV; MES, 4 mM CaCl2, pH 6.5, room temperature

## (Streptococcus pneumoniae R6)
[1]
  Km: 25.97 ± 2.19 µM
[2]
  Km: 24.50 ± 2.71 µM

## CC(=O)N[C@H]1[C@H]([C@H](O)[C@H](O)CO)OC(C(=O)O)=C[C@@H]1O [DANA, 2,3-dehydro-2-deoxy-N-acetylneuraminic acid]
20566-LC (NanA-DSM20566)
  IC50: 3.8 ± 0.5 µM
20566-CC (NanA-DSM20566) [3]
  IC50: 2.35 ± 0.16 µM
20566-CC (NanA-DSM20566) [4]
  IC50: 4.56 ± 0.71 µM
20566-CC (NanA-DSM20566) [5]
  IC50: 0.92 ± 0.71 µM

## CC(=O)N[C@H]1[C@H]([C@H](O)[C@H](O)CO)O[C@@](Oc2ccc3c(C)cc(=O)oc3c2)(C(=O)O)C[C@@H]1O [MUNANA, 2′-(4-methylumbelliferyl)-a-D-N-acetylneuraminic acid]
20566-CC (NanA-DSM20566) [6]
  Km: > 1000 µM
20566-CC (NanA-DSM20566) [7]
  Km: 17.9 ± 1.07 µM
20566-CC (NanA-DSM20566) [8]
  Km: 32.8 ± 4.78 µM
